From patent US7642274B2, “Inhibitor of pain threshold decrease” (Santen Pharmaceutical Co., Ltd., priority 2003, dated 2010)
Counter-ions that a name gives are not always drawn.

Experiments:
[1] = tested on: repetitive cold stress rat models; experiment: Test for inhibition of pain threshold decrease by repetitive cold stress (continuous administration), Randall-Selitto method; assay type: in vivo; details: for inhibition in vivo at 3 mg/kg: Rattus norvegicus, 192 h, day 8 after applying the repetitive cold stress, orally 3 mg/kg once a day, with stress, average of 5 or 6 cases, read-out: Rate of inhibition of pain threshold decrease (%); for inhibition in vivo at 3 mg/kg / Rate of inhibition of pain threshold decrease (%): po; for Rate of inhibition of pain threshold decrease (%): rat, in vivo
[2] = tested on: repetitive cold stress rat models; experiment: Test for inhibition of pain threshold decrease by repetitive cold stress (single administration), Randall-Selitto method; assay type: in vivo; details: 24 hours after single administration on day 8 of repetitive cold stress; orally 3 mg/kg; with stress; average of 6 cases

## COc1ccc(OCCCN(CCO)C(C)C)c(C2Sc3cc(Cl)ccc3N2C(C)=O)c1.Cl (single isomer, unassigned; (+)) [Compound A, (+)-3-acetyl-6-chloro-2-[2-(3-(N-(2-hydroxyethyl)-N-isopropylamino)propoxy)-5-methoxyphenyl]benzothiazoline hydrochloride]
[1]
  inhibition in vivo at 3 mg/kg: 52.1%
[2]
  Pain threshold (mmHg): 21.7 mmHg
  Rate of inhibition of pain threshold decrease (%): 0%

## CC(=O)OC(C(=O)O)C(OC(C)=O)C(=O)O.COCCN(CCCOc1ccc(OC)cc1C1Sc2cc(Cl)ccc2N1C(C)=O)C(C)C (single isomer, unassigned; (+)) [Compound B, (+)-3-acetyl-6-chloro-2-[2-(3-(N-(2-methoxyethyl)-N-isopropylamino)propoxy)-5-methoxyphenyl]benzothiazolinediacetyl tartrate]
[1]; 3 mg/kg
  Rate of inhibition of pain threshold decrease (%): 53.9%
[2]
  Pain threshold (mmHg): 21.5 mmHg
  Rate of inhibition of pain threshold decrease (%): −1.9%

## CC(=O)OC(C(=O)O)C(OC(C)=O)C(=O)O.CCOCCN(CCCOc1ccc(OC)cc1C1Sc2cc(Cl)ccc2N1C(C)=O)C(C)C (single isomer, unassigned; (+)) [Compound C, (+)-3-acetyl-6-chloro-2-[2-(3-(N-(2-ethoxyethyl)-N-isopropylamino)propoxy)-5-methoxyphenyl]benzothiazolinediacetyl tartrate]
[1]; 3 mg/kg
  Rate of inhibition of pain threshold decrease (%): 73.4%
[2]
  Pain threshold (mmHg): 21.7 mmHg
  Rate of inhibition of pain threshold decrease (%): 0%

## COc1ccc(OCCCCl)c(C2Sc3cc(Cl)ccc3N2C(C)=O)c1 (single isomer, unassigned; (+)) [Compound F, (+)-3-acetyl-6-chloro-2-[2-(3-chloropropoxy)-5-methoxyphenyl]benzothiazoline hydrochloride]
[1]
  inhibition in vivo at 3 mg/kg: 43.1%

## COc1ccc(OCCCN(CCOC(C)=O)C(C)C)c(C2Sc3cc(Cl)ccc3N2C(C)=O)c1 (single isomer, unassigned; (+)) [Compound H, (+)-2-[2-(3-(N-(2-acetoxyethyl)-N-isopropylamino)propoxy)-5-methoxyphenyl]-3-acetyl-6-chlorobenzothiazoline hydrochloride]
[1]
  inhibition in vivo at 3 mg/kg: 34.5%

## COCOCCN(CCCOc1ccc(OC)cc1C1Sc2cc(Cl)ccc2N1C(C)=O)C(C)C.Cl (single isomer, unassigned; (+)) [Compound I, (+)-3-acetyl-6-chloro-2-[2-(3-(N-isopropyl-(N-methoxymethyloxyethyl)amino)propoxy)-5-methoxyphenyl]benzothiazoline hydrochloride]
[1]; 3 mg/kg
  Rate of inhibition of pain threshold decrease (%): 43.1%

## COc1ccc(OC(C)CCN(CCO)C(C)C)c(C2Sc3cc(Cl)ccc3N2C(C)=O)c1 (stereo not drawn) [Compound G, 3-acetyl-6-chloro-2-[2-(3-(N-(2-hydroxyethyl)-N-isopropylamino)-1-methylpropoxy)-5-methoxyphenyl]benzothiazoline hydrochloride]
[1]
  inhibition in vivo at 3 mg/kg: 32.8%

## CCOCCN(CCCOc1ccc(OC)cc1C1Sc2cc(Cl)ccc2N1C(C)=O)C(C)C.Cl (stereo not drawn) [Compound K, 3-acetyl-6-chloro-2-[2-(3-(N-(2-ethoxyethyl)-N-isopropylamino)propoxy)-5-methoxyphenyl]benzothiazolinediacetyl hydrochloride]
[1]; 10 mg/kg
  Rate of inhibition of pain threshold decrease (%): 62.7%

## O=C(O)Cc1ccccc1Nc1c(Cl)cccc1Cl [Compound L, Diclofenac, reference compound]
[1]; result in words, continuous administration once a day, day 8 of repetitive cold stress
  activity on inhibiting a decrease in pain threshold: not observed at all
